# Source: PubChem BioAssay AID248 (DTP/NCI, 2004)
# Several values for one entry are separate records, joined by “and”; a condition that tells them apart may be missing. Equal values may be shown once. Inconclusive results and toxic doses are left out.
# Test system: L1210 leukemia ip in BDF1 mice, survival T/C
# Assay: NCI In Vivo Anticancer Drug Screen. Data for tumor model L1210 Leukemia (intraperitoneal) in B6D2F1 (BDF1) mice
# Conditions: endpoint: mean survival time, higher = longer survival
# In short: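 Tumor was transplanted into mice, which were then dosed with test compound or vehicle alone. Survival was recorded for each group, and the treated figure was expressed relative to the control figure.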
# [1] = dose: 100.0 mg/kg/injection, schedule: Q01DX009 (ip), vehicle: saline with Tween-80
# [2] = dose: 100.0 mg/kg/injection, schedule: Q04DX003 (ip), vehicle: saline with Tween-80
# [3] = dose: 200.0 mg/kg/injection, schedule: Q01DX009 (ip), vehicle: saline with Tween-80
# [4] = dose: 200.0 mg/kg/injection, schedule: Q04DX003 (ip), vehicle: saline with Tween-80
# [5] = dose: 400.0 mg/kg/injection, schedule: Q01DX009 (ip), vehicle: saline with Tween-80
# [6] = dose: 400.0 mg/kg/injection, schedule: Q04DX003 (ip), vehicle: saline with Tween-80
# [7] = dose: 100.0 mg/kg/injection, schedule: Q01DX001 (ip), vehicle: saline with Tween-80
# [8] = dose: 100.0 mg/kg/injection, schedule: Q04DX002 (ip), vehicle: saline with Tween-80
# [9] = dose: 200.0 mg/kg/injection, schedule: Q01DX001 (ip), vehicle: saline with Tween-80
# [10] = dose: 200.0 mg/kg/injection, schedule: Q04DX002 (ip), vehicle: saline with Tween-80
# [11] = dose: 400.0 mg/kg/injection, schedule: Q01DX001 (ip), vehicle: saline with Tween-80
# [12] = dose: 400.0 mg/kg/injection, schedule: Q04DX002 (ip), vehicle: saline with Tween-80
# [13] = dose: 100.0 mg/kg/injection, schedule: Q01DX009 (ip), vehicle: Klucel (hydroxypropylcellulose) (HPC)
# [14] = dose: 200.0 mg/kg/injection, schedule: Q01DX009 (ip), vehicle: Klucel (hydroxypropylcellulose) (HPC)
# [15] = dose: 400.0 mg/kg/injection, schedule: Q01DX009 (ip), vehicle: Klucel (hydroxypropylcellulose) (HPC)
# [16] = dose: 100.0 mg/kg/injection, schedule: Q01DX001 (ip), vehicle: carboxymethylcellulose (CMC)
# [17] = dose: 200.0 mg/kg/injection, schedule: Q01DX001 (ip), vehicle: carboxymethylcellulose (CMC)
# [18] = dose: 400.0 mg/kg/injection, schedule: Q01DX001 (ip), vehicle: carboxymethylcellulose (CMC)
# [19] = dose: 100.0 mg/kg/injection, schedule: Q04DX003 (ip), vehicle: Klucel (hydroxypropylcellulose) (HPC)
# [20] = dose: 200.0 mg/kg/injection, schedule: Q04DX003 (ip), vehicle: Klucel (hydroxypropylcellulose) (HPC)
# [21] = dose: 400.0 mg/kg/injection, schedule: Q04DX003 (ip), vehicle: Klucel (hydroxypropylcellulose) (HPC)
# [22] = dose: 50.0 mg/kg/injection, schedule: Q01DX009 (ip), vehicle: saline
# [23] = dose: 100.0 mg/kg/injection, schedule: Q01DX009 (ip), vehicle: saline
structure (smiles),measurement,setting,value
c1ccc(-c2nnc3oc(-c4ccco4)nn23)cc1,T/C,[1],100 % of control
same,T/C,[2],96 % of control
same,T/C,[3],101 % of control
same,T/C,[4],102 % of control
same,T/C,[5],101 % of control
same,T/C,[6],94 % of control
O=C1C2CCN(CC2)C1Cc1ccccc1 (configuration not stated),T/C,"dose: 100.0 mg/kg/injection, schedule: Q04DX002 (ip), vehicle: saline",111 % of control
same,T/C,"dose: 200.0 mg/kg/injection, schedule: Q04DX002 (ip), vehicle: saline",107 % of control
COc1ccc(C(C)N=CC(C)(C)C)cc1 (configuration not stated),T/C,[2],101 % of control
same,T/C,[4],101 % of control
CCOC(=O)c1ccc(NC(=O)Nc2ccc(OC)cc2OC)cc1,T/C,"dose: 12.5 mg/kg/injection, schedule: Q01DX009 (ip), vehicle: saline with Tween-80",94 % of control and 95 % of control
same,T/C,"dose: 25.0 mg/kg/injection, schedule: Q01DX009 (ip), vehicle: saline with Tween-80",94 % of control and 103 % of control
same,T/C,"dose: 50.0 mg/kg/injection, schedule: Q01DX009 (ip), vehicle: saline with Tween-80",95 % of control and 87 % of control
same,T/C,[7],86 % of control
same,T/C,[8],97 % of control
same,T/C,[9],89 % of control
same,T/C,[10],91 % of control
same,T/C,[11],91 % of control
same,T/C,[12],93 % of control
CC(O)C(=O)SCc1ccccc1 (configuration not stated),T/C,[8],95 % of control
same,T/C,[10],98 % of control
same,T/C,[12],92 % of control
Cc1coc(NS(=O)(=O)c2ccc(N=Nc3c(N)nc(N)nc3N)cc2)c1C,T/C,"dose: 100.0 mg/kg/injection, schedule: Q01DX001 (ip), vehicle: saline",97 % of control
same,T/C,"dose: 200.0 mg/kg/injection, schedule: Q01DX001 (ip), vehicle: saline",94 % of control
same,T/C,"dose: 400.0 mg/kg/injection, schedule: Q01DX001 (ip), vehicle: saline",97 % of control
NC(=O)c1ccccc1NC(=O)Nc1ccccc1C(F)(F)F,T/C,[13],98 % of control
same,T/C,[14],98 % of control
same,T/C,[15],100 % of control
CC1(C)NC(=O)NC(=O)C1Br (configuration not stated),T/C,"dose: 100.0 mg/kg/injection, schedule: Q01DX Z (ip), vehicle: methylcellulose (MC)",96 % of control
O=C(OC1CC2CC1C1CCCCC21)c1ccc([N+](=O)[O-])cc1 (configuration not stated),T/C,"dose: 50.0 mg/kg/injection, schedule: Q01DX001 (ip), vehicle: carboxymethylcellulose (CMC)",94 % of control
same,T/C,[16],105 % of control
same,T/C,[17],100 % of control
same,T/C,[18],96 % of control
C/C(=C\COc1ccc2ccc(=O)oc2c1)C1=CC(=O)C(C)(C)O1,T/C,[1],96 % of control
same,T/C,[2],96 % of control
same,T/C,[3],94 % of control
same,T/C,[4],91 % of control
same,T/C,[5],97 % of control
same,T/C,[6],94 % of control
CC(O)COc1ccc(OCc2ccccc2)cc1 (configuration not stated),T/C,[13],98 % of control
same,T/C,[19],106 % of control
same,T/C,[14],95 % of control
same,T/C,[20],100 % of control
same,T/C,[15],97 % of control
same,T/C,[21],92 % of control
O=C(O)C(CSC(c1ccccc1)(c1ccccc1)c1ccccc1)N=Cc1ccccc1O (configuration not stated),T/C,"dose: 267.0 mg/kg/injection, schedule: Q01DX001 (ip), vehicle: saline",154 % of control
same,T/C,"dose: 600.0 mg/kg/injection, schedule: Q01DX001 (ip), vehicle: saline",154 % of control
CC1CCCC(NC(=O)NCCCl)C1 (configuration not stated),T/C,[19],95 % of control
same,T/C,[20],87 % of control
same,T/C,[21],98 % of control
C[N+]1(C)CC2CCCCC1C2O (configuration not stated),T/C,"dose: 75.0 mg/kg/injection, schedule: Q01DX001 (ip), vehicle: saline",108 % of control
same,T/C,"dose: 150.0 mg/kg/injection, schedule: Q01DX001 (ip), vehicle: saline",104 % of control
O=c1[nH]cc(CN(CCO)CCO)c(=O)[nH]1,T/C,"dose: 100.0 mg/kg/injection, schedule: Q01DX Z (ip), vehicle: saline",101 % of control
same,T/C,"dose: 200.0 mg/kg/injection, schedule: Q01DX Z (ip), vehicle: saline",103 % of control
CCCNC(=O)Nc1ccc(Cl)cc1,T/C,[16],103 % of control
same,T/C,[17],98 % of control
same,T/C,[18],95 % of control
CC(C)=CCC1=CC(=O)c2ccccc2C1=O,T/C,"dose: 12.0 mg/kg/injection, schedule: Q01DX009 (ip), vehicle: water",97 % of control
same,T/C,"dose: 25.0 mg/kg/injection, schedule: Q01DX009 (ip), vehicle: water",102 % of control
same,T/C,"dose: 50.0 mg/kg/injection, schedule: Q01DX001 (ip), vehicle: water",96 % of control
same,T/C,"dose: 50.0 mg/kg/injection, schedule: Q01DX009 (ip), vehicle: water",96 % of control
same,T/C,"dose: 100.0 mg/kg/injection, schedule: Q01DX001 (ip), vehicle: water",102 % of control
same,T/C,"dose: 100.0 mg/kg/injection, schedule: Q01DX009 (ip), vehicle: water",95 % of control
same,T/C,"dose: 200.0 mg/kg/injection, schedule: Q01DX001 (ip), vehicle: water",105 % of control
same,T/C,"dose: 400.0 mg/kg/injection, schedule: Q01DX001 (ip), vehicle: water",92 % of control
CS(=O)(=O)OCCBr,T/C,"dose: 12.5 mg/kg/injection, schedule: Q04DX003 (ip), vehicle: saline",88 % of control
same,T/C,"dose: 25.0 mg/kg/injection, schedule: Q04DX003 (ip), vehicle: saline",90 % of control
same,T/C,"dose: 50.0 mg/kg/injection, schedule: Q04DX003 (ip), vehicle: saline",87 % of control
same,T/C,[16],103 % of control
O=P(O)(Nc1ccccc1)Nc1ccccc1,T/C,[8],113 % of control
same,T/C,[10],103 % of control
same,T/C,[12],113 % of control
CC1CCC(OC(C[N+](=O)[O-])C(Cl)(Cl)Cl)CC1 (configuration not stated),T/C,[1],93 % of control
same,T/C,[2],106 % of control
same,T/C,[3],91 % of control
same,T/C,[4],101 % of control
same,T/C,[5],90 % of control
same,T/C,[6],104 % of control
COC(=O)C1CC2c3ccccc3C1c1ccccc12 (configuration not stated),T/C,[1],110 % of control
same,T/C,[19],108 % of control
same,T/C,"dose: 176.0 mg/kg/injection, schedule: Q01DX001 (ip), vehicle: carboxymethylcellulose (CMC)",96 % of control and 92 % of control
same,T/C,[3],89 % of control
same,T/C,[20],97 % of control
same,T/C,"dose: 264.0 mg/kg/injection, schedule: Q01DX001 (ip), vehicle: carboxymethylcellulose (CMC)",93 % of control
same,T/C,[18],95 % of control
same,T/C,[5],95 % of control
same,T/C,[21],93 % of control
same,T/C,"dose: 600.0 mg/kg/injection, schedule: Q01DX001 (ip), vehicle: carboxymethylcellulose (CMC)",98 % of control
CCOC(=O)CCC(I)C(=O)OCC (configuration not stated),T/C,"dose: 3.75 mg/kg/injection, schedule: Q01DX010 (ip), vehicle: saline",98 % of control
same,T/C,"dose: 15.0 mg/kg/injection, schedule: Q01DX010 (ip), vehicle: saline",90 % of control
O=C(O)C1CO1 (configuration not stated),T/C,"dose: 100.0 mg/kg/injection, schedule: Q01DX001 (ip), vehicle: acetone",102 % of control
same,T/C,"dose: 200.0 mg/kg/injection, schedule: Q01DX001 (ip), vehicle: acetone",98 % of control
same,T/C,"dose: 400.0 mg/kg/injection, schedule: Q01DX001 (ip), vehicle: acetone",101 % of control
CC(C)(C)C12N=NCC1C(=O)C1(C(C)(C)C)OC1C2=O (configuration not stated),T/C,[7],102 % of control
same,T/C,[9],97 % of control
same,T/C,[11],94 % of control
O=C(O)C(Br)Cc1cnc[nH]1 (configuration not stated),T/C,[22],106 % of control
same,T/C,[23],106 % of control
same,T/C,"dose: 200.0 mg/kg/injection, schedule: Q01DX009 (ip), vehicle: saline",98 % of control
COc1ccc(C2CCCCC2O)cc1 (configuration not stated),T/C,[13],94 % of control
same,T/C,[19],97 % of control
same,T/C,[14],99 % of control
same,T/C,[20],91 % of control
same,T/C,[15],99 % of control
same,T/C,[21],93 % of control
OCCC1=CCCCC1,T/C,[2],97 % of control
same,T/C,[4],95 % of control
same,T/C,[6],93 % of control
Nc1cc(=S)c2[nH]cnc2[nH]1,T/C,"dose: 100.0 mg/kg/injection, schedule: Q01DX001 (ip), vehicle: Klucel (hydroxypropylcellulose) (HPC)",92 % of control
same,T/C,"dose: 400.0 mg/kg/injection, schedule: Q01DX001 (ip), vehicle: Klucel (hydroxypropylcellulose) (HPC)",88 % of control
CC(N)CCC(C)(C)O (configuration not stated),T/C,[22],93 % of control
same,T/C,[23],90 % of control
